Measured values taken from patent US20080213125A1, “Apparatus and Method for Using Ozone as a Disinfectant” (Huawei Technologies Co. LTD., priority 2004, published 2008).
Several values for one entry are separate records, joined by “and”; a condition that tells them apart may be missing. Identical values can stand only once. Like-named read-outs stand apart in the source and are kept apart here.

Legend:
Human rotavirus [1] = details: cited from earlier work
Human rotavirus [2] = details: aqueous, 25 μg/ml; cited from earlier work
[3] = tested on: Herpes Simplex Virus (HSV); test: Experiment #1: ozone gas exposure of virus on surfaces in a chamber
Polio-virus type 3 = details: aqueous, 20 seconds, ozone demand-free 0.05 M phosphate buffer (pH 6.9) at 22 degrees C.; cited from earlier work
[4] = tested on: Herpes Simplex Virus (HSV); test: Experiment #4: ozone gas against dried viruses on surfaces
Feline calicivirus (FCV) [5] = tested on: Feline calicivirus (FCV)
Influenza virus [6] = details: 3 hours (post infection), 0.6 ppm; cited from earlier work
HSV [7] = test: Experiment #2: ozone inactivation at different locations within a test room; details: 28 ppm, 60 minutes exposure; three samples at three locations in test room
[8] = tested on: HEp-2 cell-associated coxsackievirus A9; details: aqueous, 30 seconds, 4.06-4.68 mg/liter; cited from earlier work
Poliovirus [9] = details: high humidity, 20 ppm to 40 ppm, about 15 minutes
Influenza virus [10] = details: continuous, 0.5 ppm; cited from earlier work
HIV Type 1 = details: 2 hours, 1,200 ppm; cited from earlier work
Influenza virus [11] = details: gaseous, in vivo, 0.5 ppm; cited from earlier work
Feline calicivirus (FCV) [12] = test: Experiment #1: ozone gas exposure of virus on surfaces in a chamber
viruses [13] = tested on: viruses
FCV = test: Experiment #3: reduced ozone doses and high humidity; details: high humidity, 20 ppm to 40 ppm, about 15 minutes
Hepatitis A virus [14] = details: aqueous, 60 seconds, 1 mg/L or greater at all pH levels; cited from earlier work
T1 phage = details: gaseous, 10 minutes, 10 ppm; cited from earlier work
HIV = details: serum and serum-supplemented media; tested 0.5 to 4.0 micrograms/ml−1; cited from earlier work
[15] = tested on: Venezuelan equine encephalomyelitis virus; details: aqueous, 45 minutes, 0.025 mg of ozone per liter; control levels 10 (7.25-7.5); cited from earlier work
Polio-virus 1 (PV1) = details: steadily flowing water at 20 degrees C. and pH 7; cited from earlier work
[16] = tested on: Vesicular stomatitis virus (VSV); details: 3 to 14 mL of 1.4 mmol/L (65 micrograms/mL) to 1.6 mmoler/L, aqueous; cited from earlier work
HSV [17] = test: Experiment #3: reduced ozone doses and high humidity; details: high humidity, 20 ppm to 40 ppm, about 15 minutes
[18] = tested on: Mulluscum Contagiosum Virus (MCV)
viruses [19] = tested on: viruses; remark: listed apart in the source
Poliovirus [20] = details: dried state on glass, plastic, steel, wood and fabric
Poliovirus [21] = details: 0.1-2.0 mg/l, aqueous, cited from earlier work
Influenza virus [22] = details: inhaled, 0.5 ppm; cited from earlier work
[23] = tested on: HEp-2 cell-associated poliovirus (Sabin 1); details: cited from earlier work
Poliovirus [24] = details: under similar conditions (about 100 ppm chamber)
factor VIII = factor VIII (Homo sapiens, UniProt P00451); details: plasma and immunoaffinity-purified preparations; 2 hours, 1,200 ppm; cited from earlier work
type 39 rhinovirus = details: cited from earlier work
Hepatitis A virus [25] = details: ozone and UV light, cited from earlier work
influenza virus [26] = tested on: influenza virus
rhinovirus = test: Experiment #4: ozone gas against dried viruses on surfaces; details: dried state on glass, plastic, steel, wood and fabric
Polio-viruses = details: aqueous, 1.0 to 1.5 mg ozone/liter (dissolved); cited from earlier work
MS2 coliphage = details: aqueous, 20 seconds, ozone demand-free 0.05 M phosphate buffer (pH 6.9) at 22 degrees C.; cited from earlier work
[27] = tested on: Respiratory syncytial virus; details: gaseous, in vitro, 2 hours, 1 ppm; cited from earlier work
bacteriophage phi 6 = details: 3 to 14 mL of 1.4 mmol/L (65 micrograms/mL) to 1.6 mmoler/L, aqueous; cited from earlier work

Chain of factor VIII (P00451 20-2351): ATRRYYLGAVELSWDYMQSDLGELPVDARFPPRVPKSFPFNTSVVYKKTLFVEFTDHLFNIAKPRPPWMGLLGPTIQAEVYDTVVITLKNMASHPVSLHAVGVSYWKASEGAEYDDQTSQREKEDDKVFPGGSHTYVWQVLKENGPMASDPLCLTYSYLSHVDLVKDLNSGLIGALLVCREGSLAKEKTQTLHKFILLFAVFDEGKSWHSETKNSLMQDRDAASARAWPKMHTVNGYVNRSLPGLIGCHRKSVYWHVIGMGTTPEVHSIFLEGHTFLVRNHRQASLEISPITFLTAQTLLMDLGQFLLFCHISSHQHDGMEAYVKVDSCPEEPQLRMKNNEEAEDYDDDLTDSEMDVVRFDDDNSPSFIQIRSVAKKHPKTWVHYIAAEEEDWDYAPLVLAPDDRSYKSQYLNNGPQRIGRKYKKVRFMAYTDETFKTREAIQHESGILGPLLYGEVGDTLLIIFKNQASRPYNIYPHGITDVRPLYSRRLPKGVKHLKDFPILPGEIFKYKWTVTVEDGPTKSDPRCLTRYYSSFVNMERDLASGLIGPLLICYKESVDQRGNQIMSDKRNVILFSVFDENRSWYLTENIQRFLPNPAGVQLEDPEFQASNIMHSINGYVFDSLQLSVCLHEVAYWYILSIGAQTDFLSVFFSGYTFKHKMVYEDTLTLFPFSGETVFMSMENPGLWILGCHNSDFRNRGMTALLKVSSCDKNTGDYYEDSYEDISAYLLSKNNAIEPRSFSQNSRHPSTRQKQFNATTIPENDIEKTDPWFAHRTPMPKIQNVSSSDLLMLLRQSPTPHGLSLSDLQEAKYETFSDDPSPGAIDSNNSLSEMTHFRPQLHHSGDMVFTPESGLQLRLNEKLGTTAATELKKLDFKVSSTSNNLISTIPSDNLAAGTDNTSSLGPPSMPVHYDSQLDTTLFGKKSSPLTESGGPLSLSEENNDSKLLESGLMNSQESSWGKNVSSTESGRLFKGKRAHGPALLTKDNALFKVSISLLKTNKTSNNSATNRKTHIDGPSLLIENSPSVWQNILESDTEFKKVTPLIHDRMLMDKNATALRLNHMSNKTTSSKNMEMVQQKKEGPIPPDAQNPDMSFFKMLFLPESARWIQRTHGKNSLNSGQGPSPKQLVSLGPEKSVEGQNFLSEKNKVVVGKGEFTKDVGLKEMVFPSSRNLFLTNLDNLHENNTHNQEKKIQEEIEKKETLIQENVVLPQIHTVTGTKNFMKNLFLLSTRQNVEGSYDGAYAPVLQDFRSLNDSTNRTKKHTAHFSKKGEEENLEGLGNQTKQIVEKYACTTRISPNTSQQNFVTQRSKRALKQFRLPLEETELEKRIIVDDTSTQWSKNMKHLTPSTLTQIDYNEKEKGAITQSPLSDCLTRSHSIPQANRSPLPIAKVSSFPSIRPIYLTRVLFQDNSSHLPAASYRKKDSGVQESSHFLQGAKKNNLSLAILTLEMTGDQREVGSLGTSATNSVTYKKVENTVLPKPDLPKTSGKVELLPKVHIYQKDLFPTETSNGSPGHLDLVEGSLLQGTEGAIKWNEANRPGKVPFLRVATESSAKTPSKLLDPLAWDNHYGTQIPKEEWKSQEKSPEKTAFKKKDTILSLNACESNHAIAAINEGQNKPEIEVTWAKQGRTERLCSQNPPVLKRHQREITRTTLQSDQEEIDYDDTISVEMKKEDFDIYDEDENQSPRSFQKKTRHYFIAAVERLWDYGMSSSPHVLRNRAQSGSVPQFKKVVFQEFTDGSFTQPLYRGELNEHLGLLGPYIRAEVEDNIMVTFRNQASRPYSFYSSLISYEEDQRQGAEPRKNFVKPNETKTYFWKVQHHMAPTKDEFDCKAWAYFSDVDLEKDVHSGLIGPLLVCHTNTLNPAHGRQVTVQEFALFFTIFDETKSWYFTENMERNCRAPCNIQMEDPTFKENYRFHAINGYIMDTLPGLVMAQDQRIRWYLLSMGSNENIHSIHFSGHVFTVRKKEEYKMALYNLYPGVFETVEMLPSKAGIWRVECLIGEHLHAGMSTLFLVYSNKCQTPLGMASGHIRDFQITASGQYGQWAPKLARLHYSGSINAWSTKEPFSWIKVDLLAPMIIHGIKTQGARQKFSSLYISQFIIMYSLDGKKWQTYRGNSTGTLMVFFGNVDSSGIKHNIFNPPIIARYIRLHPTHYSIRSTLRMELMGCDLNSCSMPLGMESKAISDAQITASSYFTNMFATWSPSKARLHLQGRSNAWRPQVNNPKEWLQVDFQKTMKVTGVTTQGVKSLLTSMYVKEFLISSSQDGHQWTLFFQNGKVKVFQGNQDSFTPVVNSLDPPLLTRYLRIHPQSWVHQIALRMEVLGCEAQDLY

**Q.** With Ozone as the substance, how does the “sensitivity of human rotavirus to inactivation compared with simian rotavirus” value (Human rotavirus [1]) read?
**A.** The value was “strikingly less sensitive to”.

**Q.** And the “decrease of rotavirus infectivity” value (Human rotavirus [2])?
**A.** The value was 8 to 9 log10 TCID50/ml.

**Q.** What about the reduced the virus (MCV) of the same substance?
**A.** Its reduced the virus is “more than 99%”.

**Q.** And the reduced the virus ([3]; 100 ppm for 20-30 minutes)?
**A.** Its reduced the virus is “more than 99%”.

**Q.** What about the inactivated virus infectivity ([3]; 100 ppm, 10 minutes) of the same substance?
**A.** Its inactivated virus infectivity is 90-95%.

**Q.** What about the “more inactivation observed with MS2 coliphage than with poliovirus type 3” value (Polio-virus type 3) of the same substance?
**A.** Its value is “inactivated, 1.6 log units more”.

**Q.** And the reduced the virus ([4]; 100 ppm for 20 to 30 minutes)?
**A.** The reduced the virus was “more than 99%”.

**Q.** What about the “inactivation (kill) by ozone gas” value ([4]; dried state on glass, plastic, steel, wood and fabric) of the same substance?
**A.** The value was “efficiently inactivate”.

**Q.** And the “inactivation by the ozone generator” value (Feline calicivirus (FCV) [5])?
**A.** The value was “efficiently inactivated”.

**Q.** What about the “virus growth in nose” value (Influenza virus [6]) of the same substance?
**A.** Its value is “Complete inhibition of virus”.

**Q.** What about the “HSV inactivated (killed)” value (HSV [7]) of the same substance?
**A.** The value was 98% and 99.4% and 97.8%.

**Q.** What about the “Effectiveness (inactivation)” value [8] of the same substance?
**A.** Its value is “Inactivated cell-associated”.

**Q.** What about the inactivated (Poliovirus [9]) of the same substance?
**A.** The inactivated was “more than 99.6%”.

**Q.** What about the “acute virus-induced lung injury & residual lung damage” value (Influenza virus [10]) of the same substance?
**A.** The value was “exposure mitigates acute”.

**Q.** And the “mitigated the virus-induced acute lung injury” value (Influenza virus [10])?
**A.** Its value is “approximately 50%. Ozone”.

**Q.** And the “proliferation of virus in the lungs as quantitated by infectious virus titers” value (Influenza virus [10])?
**A.** Its value is “Ozone exposure did not alter”.

**Q.** And the inactivation (HIV Type 1)?
**A.** The inactivation was >11 log inactivation (NB.

**Q.** What about the Severity of infection (Influenza virus [11]) of the same substance?
**A.** The Severity of infection was “Severity of infection reduced”.

**Q.** And the reduced the virus (Feline calicivirus (FCV) [12]; 100 ppm for 20-30 minutes)?
**A.** The reduced the virus was “more than 99%”.

**Q.** And the inactivated virus infectivity (Feline calicivirus (FCV) [12]; 100 ppm, 10 minutes)?
**A.** The inactivated virus infectivity was 90-95%.

**Q.** And the “susceptibility of viruses to ozone on surfaces” value (viruses [13])?
**A.** The value was “susceptible”.

**Q.** And the “virus inactivation in high humidity versus ambient humidity” value (viruses [13])?
**A.** The value was “much more efficiently”.

**Q.** What about the “virus infectivity after exposure” value (viruses [13]) of the same substance?
**A.** Its value is “no vilus infectivity could be detected at all”.

**Q.** What about the inactivated (FCV) of the same substance?
**A.** Its inactivated is 99.91%.

**Q.** What about the complete inactivation (Hepatitis A virus [14]) of the same substance?
**A.** The complete inactivation was “complete (5 log) inactivation”.

**Q.** What about the “reduction in number of phages” value (T1 phage) of the same substance?
**A.** The value was 90% reduction in number of.

**Q.** And the “concentration at which complete inactivation of HIV obtained” value (HIV)?
**A.** Its value is “obtained at 4.0 micrograms/ml−1”.

**Q.** What about the inactivation [15] of the same substance?
**A.** Its inactivation is “Inactivation of 10 (6.5) median median cell culture infective doses”.

**Q.** What about the “Concentration for complete inactivation of PV1” value (Polio-virus 1 (PV1)) of the same substance?
**A.** Its value is 0.13 mg/L.

**Q.** What about the inactivated [16] of the same substance?
**A.** Its inactivated is “Inactivated by greater than 4 log10”.

**Q.** And the inactivated (HSV [17])?
**A.** Its inactivated is “more than 99%”.

**Q.** What about the reduced the virus [18] of the same substance?
**A.** Its reduced the virus is “more than 99%”.

**Q.** And the reduced the virus (FV)?
**A.** Its reduced the virus is “more than 99%”.

**Q.** And the “susceptibility of viruses to ozone on surfaces” value (viruses [19])?
**A.** The value was “susceptible”.

**Q.** What about the “virus inactivation in high humidity versus ambient humidity” value (viruses [19]) of the same substance?
**A.** The value was “much more efficiently”.

**Q.** And the “inactivation (kill) by ozone gas” value (Poliovirus [20])?
**A.** Its value is “efficiently inactivate”.

**Q.** And the “virus inactivated, Step 1” value (Poliovirus [21]; Step 1: 0.2-1.0 s)?
**A.** The value was “Step 1: 95 to 99% of the virus”.

**Q.** What about the “virus inactivated, Step 2” value (Poliovirus [21]; Step 2: several minutes) of the same substance?
**A.** The value was “Step 2: remainder inactivated”.

**Q.** And the “distribution of viral antigen” value (Influenza virus [22])?
**A.** Its value is “well as altered the distribution”.

**Q.** What about the spread of infection (Influenza virus [22]) of the same substance?
**A.** Its spread of infection is “less widespread infection, as”.

**Q.** And the “Effectiveness (inactivation)” value [23]?
**A.** Its value is “Inactivated cell-associated”.

**Q.** What about the inactivation by ozone (Poliovirus [24]) of the same substance?
**A.** Its inactivation by ozone is “inactivated”.

**Q.** What about the “effect on factor VIII activity” value (factor VIII) of the same substance?
**A.** Its value is “Minimal effect on factor VIII”.

**Q.** What about the “adverse effects in experimental group” value (type 39 rhinovirus; human, in vivo) of the same substance?
**A.** The value was “placebo groups; no adverse”.

**Q.** What about the “effect on individuals infected with rhinovirus” value (type 39 rhinovirus; human, in vivo) of the same substance?
**A.** The value was “no effect”.

**Q.** And the “viral titres, experimental versus placebo groups” value (type 39 rhinovirus; inhaled, 0.3 ppm, 6 hours per day for five days)?
**A.** The value was “No difference in viral titres”.

**Q.** And the “virus titre after depuration” value (Hepatitis A virus [25]; from 1.72 log TCID50 ml(−1), within 24 h)?
**A.** The value was “[TCID50] ml(−1) to <1 log log TCID50 ml(−1)”.

**Q.** And the “virus titre after depuration” value (Hepatitis A virus [25]; from 3.82 log TCID50 ml(−1), within 48 h)?
**A.** Its value is “ml(−1) to <1 log TCID50 ml(−1)”.

**Q.** And the “inactivation (kill) by ozone gas” value (corona virus)?
**A.** The value was “efficiently inactivate”.

**Q.** What about the “inactivation (kill) by ozone gas” value (influenza virus [26]) of the same substance?
**A.** Its value is “efficiently inactivate”.

**Q.** What about the “inactivation (kill) by ozone gas” value (rhinovirus) of the same substance?
**A.** The value was “efficiently inactivate”.

**Q.** What about the Effectiveness (Polio-viruses) of the same substance?
**A.** The Effectiveness was “Dependant on the condition”.

**Q.** And the MS2 coliphage inactivated (MS2 coliphage)?
**A.** Its MS2 coliphage inactivated is >99.99% of MS2 coliphage.

**Q.** And the “percentage of cells infected, experimental versus control groups” value [27]?
**A.** Its value is “No difference”.

**Q.** What about the inactivated (bacteriophage phi 6) of the same substance?
**A.** The inactivated was “Inactivated by greater than 4 log10”.
